Earlier results in paper PMC9406037, “Design, Synthesis and Activity of New N^1-Alkyl Tryptophan Functionalized Dendrimeric Peptides against Glioblastoma” (Biomolecules, 2022).

Key:
[1] = alpha-tocopherol at ca 4.4 µM
From the text: Taking into account structural differences between these two groups of dendrimers, the possible primary mechanism in the DPPH conditions involves hydrogen and electron transfer from the above electron-rich center and to less extent from numerous indole rings. For the same reasons, the highest reductive capabilities (FRAP) were expressed by compound 24. All compounds were very effective in s ...

[2] = system: U87MG cells cultured in spheroids; conditions: 20 µM alone or in combination with iododeoxyuridine (IUdR 1 µM) for 67 h; clonogenicity observed 10 day later
From the text: Another important issue which has to be taken into consideration is the time of treatment with potential drugs and mode of action. […] […] However, combined treatment o ...

Molecule: Cc1c(C)c2c(c(C)c1O)CC[C@@](C)(CCC[C@H](C)CCC[C@H](C)CCCC(C)C)O2 [alpha-tocopherol]
- radical scavenging potency relative to Trolox, ABTS model [1]: ~5.5
- radical scavenging potency relative to Trolox, DPPH model [1]: slightly lower

Molecule: trans-3,4,5′-trihydroxystilbene [Resveratrol]
- effect on cell viability or clonogenicity [2]: without any effect on cell viability or clonogenicity
- radical scavenging potency relative to Trolox, ABTS model [1]: much more potent than Trolox
- radical scavenging potency relative to Trolox, DPPH model [1]: much more potent than Trolox
